Measurements: patent US9180214B1, “Gonadotropin-releasing hormone receptor-targeting peptides and their use to treat and diagnose cancer” (STC.UNM, priority 2011, dated 2015)
Blank lines part the entries; values can stand above or below the molecule they belong to. Positions of bridges follow the written chain, without caps; N, C: chain ends. Non-standard residues stand in square brackets, D forms with d. Residues, ends and D or L forms follow the SMILES beside them. Chains are numbered I, II in the order given. *: point of attachment. DOTA = O=C(O)CN1CCN(CC(=O)O)CCN(CC(=O)*)CCN(CC(=O)O)CC1; pGlu = O=C1CC[C@@H](C(=O)O)N1; Ahx = NCCCCCC(=O)O

Columns and labels:
[1] = molecular target: T1, human GnRH receptor membrane preparations (Homo sapiens, UniProt P30968); experiment: In vitro competitive GnRH receptor binding assay with ^125I-[D-Trp^6]-LH-RH
T1 construct: purchased Millipore, Inc (Billerica, Mass.)
T1 sequence (P30968 1-328): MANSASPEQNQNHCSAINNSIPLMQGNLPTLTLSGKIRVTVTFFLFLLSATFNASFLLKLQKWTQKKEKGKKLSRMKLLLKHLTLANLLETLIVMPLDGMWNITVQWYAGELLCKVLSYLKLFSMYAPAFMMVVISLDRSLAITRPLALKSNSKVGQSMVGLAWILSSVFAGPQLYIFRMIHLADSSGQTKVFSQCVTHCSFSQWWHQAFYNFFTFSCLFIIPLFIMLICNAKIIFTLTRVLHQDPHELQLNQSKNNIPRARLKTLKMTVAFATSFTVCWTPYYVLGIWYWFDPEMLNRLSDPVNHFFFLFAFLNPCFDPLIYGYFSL
Protocol: The GnRH receptor binding affinities (IC50 values) of DOTA-Ahx-(D-Lys^6-GnRH1), DOTA-Ahx-(D-Lys^6-GnRH2) and DOTA-Ahx-(L-Lys^6-GnRH3) were determined by in vitro competitive binding assay according to the published procedure^32 with modifications. Briefly, 5 μL of Millipore ChemiScreen™ human GnRH membrane preparations were incubated at 25° C. for 3 h with approximately 30,000 counts per minute (cpm) of ^125I-[D-Trp^6]-LH-RH in the presence of 10^−11 to 10^−5 M of each peptide in 95 μL of binding medium {50 mM N-(2-hydroxyethyl)-piperazine-N′-(2-ethanesulfonic acid), 5 mM MgCl2, 1 mM CaCl2, pH 7.4, 0.2% bovine serum albumin (BSA)}. After the incubation, 800 μL of ice-cold washing buffer (50 mM N-(2-hydroxyethyl)-piperazine-N′-(2-ethanesulfonic acid), 500 mM NaCl, pH 7.4, 0.1% BSA) was added to each mixture. Each resulting mixture was filtered through a GF/C filter (Whatman, Clifton, N.J.) pre-soaked in 1% polyethylenimine. Each filter was rinsed with 1 mL of ice-cold washing buffer for three times. The activities on the filters were measured in a Wallac 1480 automated gamma counter (PerkinElmer, Waltham, Mass.). The IC50 value of each peptide was calculated using Prism software (GraphPad Software, La Jolla, Calif.).

[2] = system: DU145 human prostate cancer-xenografted nude mice; experiment: Biodistribution in DU145 human prostate cancer-xenografted nude mice; format: in vivo, mouse; conditions: DU145 xenograft
Protocol: All the animal studies were conducted in compliance with Institutional Animal Care and Use Committee approval. The pharmacokinetics of ^111In-DOTA-Ahx-(D-Lys^6-GnRH1) was determined in DU145 human prostate cancer-xenografted male athymic nude mice (Harlan, Indianapolis, Ind.). The nude mice were subcutaneously inoculated with 1×10^7 DU145 cells on the right flank of each mouse to generate DU145 xenografted tumors. The tumor weights reached approximately 0.3 g at 18 days post cell inoculation. Each tumor-bearing mouse was injected with 0.037 MBq of 111In-DOTA-Ahx-(D-Lys6-GnRH1) via the tail vein. Groups of 5 mice were sacrificed at 0.5, 2, 4 and 24 h post-injection, and tumors and organs of interest were harvested, weighed and counted. Blood values were taken as 6.5% of the whole-body weight. To determine the tumor imaging property of ^111In-DOTA-Ahx-(D-Lys^6-GnRH1), approximately 33.3 MBq of ^111In-DOTA-Ahx-(D-Lys^6-GnRH1) was injected into a DU145 human prostate cancer-xenografted nude mouse (18 days post the cell inoculation) via the tail vein. The mouse was sacrificed for small animal SPECT/CT (Nano-SPECT/CT®, Bioscan) imaging at 0.5 h post-injection. The CT imaging was immediately followed by the whole-body SPECT imaging. The SPECT scans of 24 projections were acquired. Reconstructed SPECT and CT data were visualized and co-registered using InVivoScope (Bioscan, Washington D.C.).

[3] = system: MDA-MB-231 human breast cancer-xenografted nude mice; experiment: Biodistribution in MDA-MB-231 human breast cancer-xenografted nude mice; format: in vivo, mouse; conditions: MDA-MB-231 xenograft
Protocol: All the animal studies were conducted in compliance with Institutional Animal Care and Use Committee approval. The pharmacokinetics of ^111In-DOTA-Ahx-(D-Lys^6-GnRH1) was determined in MDA-MB-231 human breast cancer-xenografted female athymic nude mice (Harlan, Indianapolis, Ind.). The nude mice were subcutaneously inoculated with 1×10^7 MDA-MB-231 cells on the right flank of each mouse to generate MDA-MB-231 xenografted tumors. The tumor weights reached approximately 0.3 g at 18 days post cell inoculation. Each tumor-bearing mouse was injected with 0.037 MBq of ^111In-DOTA-Ahx-(D-Lys^6-GnRH1) via the tail vein. Groups of 5 mice were sacrificed at 0.5, 2, 4 and 24 h post-injection, and tumors and organs of interest were harvested, weighed and counted. Blood values were taken as 6.5% of the whole-body weight.

[4] = Urinary metabolites by RP-HPLC in DU145 xenografted nude mouse; format: in vivo; conditions: 2 h post-injection
Protocol: One hundred microliters of HPLC purified ^111In-DOTA-Ahx-(D-Lys^6-GnRH1) (2.4 MBq) was injected into a DU145 human prostate cancer-xenografted nude mouse through the tail vein. At 2 h post-injection, the mouse was sacrificed and the urine was collected for metabolites analysis. The urine was centrifuged at 16,000 g for 5 min prior to the HPLC analysis. The radioactive metabolites in the urine were analyzed by injecting aliquots of the urine into HPLC. A 20-minute gradient of 15-25% acetonitrile/20 mM HCl was used for the urine analysis.

[5] = In vitro mouse serum stability by RP-HPLC; format: in vitro ADME; conditions: 37° C., 2 h
Protocol: In vitro serum stability of ^111In-DOTA-Ahx-(D-Lys^6-GnRH1) was determined by incubation in mouse serum at 37° C. for 2 h and monitored for degradation by RP-HPLC. Briefly, 100 μL of HPLC-purified ^111In-DOTA-Ahx-(D-Lys^6-GnRH1) solution (˜3.7 MBq) was added into 100 μL of mouse serum (Sigma-Aldrich Corp, St. Louis, Mo.) and incubated at 37° C. for 2 h. After the incubation, 200 μL of a mixture of ethanol and acetonitrile (V:V=1:1) was added to precipitate the serum. The resulting mixture was centrifuged at 10,000 g for 5 min to collect the supernatant. The supernatant was purged with N2 gas for 30 min to remove the ethanol and acetonitrile. The resulting sample was mixed with 500 μL of water and injected into RP-HPLC for analysis using the gradient described above.

human GnRH receptor [6] = molecular target: T2, human GnRH receptor (human, UniProt P30968 1-328); experiment: ratio of IC50 values from the competitive binding assay
T2 construct: whole, on cells; also called gonadotropin-releasing hormone (GnRH) receptor; ChemiScreen Human GnRH receptor membrane preparations
T2 sequence (looked up): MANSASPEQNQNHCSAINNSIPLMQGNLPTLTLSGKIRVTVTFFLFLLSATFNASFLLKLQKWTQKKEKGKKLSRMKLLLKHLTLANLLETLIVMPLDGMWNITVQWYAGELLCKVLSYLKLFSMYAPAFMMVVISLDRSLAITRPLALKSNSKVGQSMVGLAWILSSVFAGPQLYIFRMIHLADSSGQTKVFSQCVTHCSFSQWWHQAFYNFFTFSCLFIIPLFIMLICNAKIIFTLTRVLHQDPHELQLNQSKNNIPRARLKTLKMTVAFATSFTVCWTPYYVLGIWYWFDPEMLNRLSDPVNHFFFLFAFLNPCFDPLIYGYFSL

human GnRH receptor [7] = molecular target: T2, human GnRH receptor; experiment: competitive binding against 125I-[D-Trp6]-LH-RH on human GnRH receptor membrane preparations, filter assay
Protocol: The GnRH receptor binding affinities (IC$50$ values) of DOTA-Ahx-(D-Lys^6-GnRH1), DOTA-Ahx-(D-Lys^6-GnRH2) and DOTA-Ahx-(L-Lys^6-GnRH3) were determined by in vitro competitive binding assay according to the published procedure[32] with modifications. […] After the incubation, 800 μL of ice-cold washing buffer (50 mM N-(2-hydroxyethyl)-piperazine-N'-(2-ethanesulfonic acid), 500 mM NaCl, pH 7.4, 0.1% BSA) was added to each mixture. Each resulting mixture was filtered through a GF/C filter (Whatman, Clifton, N.J.) pre-soaked in 1% polyethylenimine. Each filter was rinsed with 1 mL of ice-cold washing buffer for three times. The activities on the filters were measured in a Wallac 1480 automated gamma counter (PerkinElmer, Waltham, Mass.). The IC$50$ value of each peptide was calculated using Prism software (GraphPad Software, La Jolla, Calif.).

GnRH receptor binding affinity (in words) [1]: low nanomolar
Molecule: CC(C)C[C@H](NC(=O)[C@@H](CCCCNC(=O)CCCCCNC(=O)CN1CCN(CC(=O)O)CCN(CC(=O)O)CCN(CC(=O)O)CC1)NC(=O)[C@H](Cc1ccc(O)cc1)NC(=O)[C@H](CO)NC(=O)[C@H](Cc1c[nH]c2ccccc12)NC(=O)[C@H](Cc1c[nH]cn1)NC(=O)[C@@H]1CCC(=O)N1)C(=O)N[C@@H](CCCNC(=N)N)C(=O)N1CCC[C@H]1C(=O)NCC(N)=O [DOTA-Ahx-(D-Lys^6-GnRH1)]

decrease of GnRH receptor binding affinity versus DOTA-Ahx-(D-Lys^6-GnRH1) [1]: 293 fold
Molecule: CC(C)C[C@H](NC(=O)[C@@H](CCCCNC(=O)[C@H](Cc1ccc(O)cc1)NC(=O)[C@H](CO)NC(=O)[C@H](Cc1c[nH]c2ccccc12)NC(=O)[C@H](Cc1c[nH]cn1)NC(=O)[C@@H]1CCC(=O)N1)NC(=O)CCCCCNC(=O)CN1CCN(CC(=O)O)CCN(CC(=O)O)CCN(CC(=O)O)CC1)C(=O)N[C@@H](CCCNC(=N)N)C(=O)N1CCC[C@H]1C(=O)NCC(N)=O [DOTA-Ahx-(D-Lys^6-GnRH2)] (I: {DOTA-Ahx}-[dK]LRPG-NH2 / II: [pGlu]HWSY; amide I:1-II:C)

decrease of GnRH receptor binding affinity versus DOTA-Ahx-(D-Lys^6-GnRH1) [1]: 119 fold
Molecule: CC(C)C[C@H](NC(=O)[C@H](CCCCNC(=O)CCCCCNC(=O)CN1CCN(CC(=O)O)CCN(CC(=O)O)CCN(CC(=O)O)CC1)NC(=O)[C@H](Cc1ccc(O)cc1)NC(=O)[C@H](CO)NC(=O)[C@H](Cc1c[nH]c2ccccc12)NC(=O)[C@H](Cc1c[nH]cn1)NC(=O)[C@@H]1CCC(=O)N1)C(=O)N[C@@H](CCCNC(=N)N)C(=O)N1CCC[C@H]1C(=O)NCC(N)=O [DOTA-Ahx-(L-Lys^6-GnRH3)]

Kidneys, percent injected dose/gram ([2]; 0.5 h post-injection): 10.93±1.53 % ID/g | Tumor, percent injected dose/gram ([2]; 0.5 h post-injection): 1.27±0.40 % ID/g | Kidneys, percent injected dose/gram ([2]; 2 h post-injection): 6.41±0.34 % ID/g | Tumor, percent injected dose/gram ([2]; 2 h post-injection): 0.55±0.23 % ID/g | Kidneys, percent injected dose/gram ([2]; 4 h post-injection): 7.29±0.90 % ID/g | Tumor, percent injected dose/gram ([2]; 4 h post-injection): 0.38±0.16 % ID/g | Kidneys, percent injected dose/gram ([2]; 24 h post-injection): 2.72±0.64 % ID/g | Tumor, percent injected dose/gram ([2]; 24 h post-injection): 0.31±0.09 % ID/g | Kidneys, percent injected dose/gram ([3]; 0.5 h post-injection): 15.39±4.59 % ID/g | Tumor, percent injected dose/gram ([3]; 0.5 h post-injection): 1.76±0.58 % ID/g | Blood, percent injected dose/gram ([3]; 2 h post-injection): 0.20±0.03 % ID/g | Kidneys, percent injected dose/gram ([3]; 2 h post-injection): 8.88±1.26 % ID/g | Liver, percent injected dose/gram ([3]; 2 h post-injection): 0.77±0.06 % ID/g | Tumor, percent injected dose/gram ([3]; 2 h post-injection): 0.29±0.10 % ID/g | Kidneys, percent injected dose/gram ([3]; 4 h post-injection): 9.28±1.18 % ID/g | Liver, percent injected dose/gram ([3]; 4 h post-injection): 0.97±0.13 % ID/g | Tumor, percent injected dose/gram ([3]; 4 h post-injection): 0.15±0.05 % ID/g | Kidneys, percent injected dose/gram ([3]; 24 h post-injection): 4.43±1.67 % ID/g | Liver, percent injected dose/gram ([3]; 24 h post-injection): 0.59±0.16 % ID/g | Tumor, percent injected dose/gram ([3]; 24 h post-injection): 0.18±0.07 % ID/g | metabolized into two compounds with higher polarity (urine) [4]: 90.2% | remained intact in urine [4]: 9.8% | stability in mouse serum [5]: stable
Molecule: CC(C)C[C@H](NC(=O)[C@@H](CCCCNC(=O)CCCCCNC(=O)CN1CCN(CC(=O)O)CCN(CC(=O)O)CCN(CC(=O)O)CC1)NC(=O)[C@H](Cc1ccc(O)cc1)NC(=O)[C@H](CO)NC(=O)[C@H](Cc1c[nH]c2ccccc12)NC(=O)[C@H](Cc1cnc[nH]1)NC(=O)[C@@H]1CCC(=O)N1)C(=O)N[C@@H](CCCNC(=N)N)C(=O)N1CCC[C@H]1C(=O)NCC(N)=O [^111In-DOTA-Ahx-(D-Lys^6-GnRH1), metal not drawn]

fold decrease of GnRH receptor binding affinity against DOTA-Ahx-(D-Lys^6-GnRH1) (human GnRH receptor [6]): 293 fold
Molecule: DOTA-Ahx-(D-Lys^6-GnRH2) (peptide)

fold decrease of GnRH receptor binding affinity against DOTA-Ahx-(D-Lys^6-GnRH1) (human GnRH receptor [6]): 119 fold
B1: DOTA-Ahx-(L-Lys^6-GnRH3) (peptide)
peptide: XHWSYKLRPG
modifications: pGlu at 1; L-Lys at 6 carrying DOTA-Ahx on its epsilon amino group; C-terminal amide

IC50 (human GnRH receptor [7]): 36.1 nM
B2: DOTA-Ahx-(D-Lys^6-GnRH1) (peptide)
peptide: XHWSYKLRPG
modifications: pGlu at 1; D-Lys at 6 carrying DOTA-Ahx (aminohexanoic acid linker) on its epsilon amino group; C-terminal amide (Gly10-NH2)
